Test results: patent US20230183241A1, “CRYSTAL OF A HYPOXANTHINE COMPOUND” (Kissei Pharmaceutical Co., Ltd., priority 2020, published 2023)
Read-outs that look alike come from different tables or passages of the source.

Columns and labels:
[1] = system: TNBS induced colitis model rat; experiment: Therapeutic effect in colitis model: suppression of intestinal permeability (FITC); type: in vivo; conditions: 3 mg/kg orally once a day for 3 days, serum FITC
Method: Test Example 2 Therapeutic Effect in Colitis Model
(1) TNBS Induced Colitis Model Rat
Thus, the suppressive effect on the intestinal permeability based on oral administration of the test compound was evaluated as an indicator of medicinal efficacy.
SD male rats: 8-week-old SLC (Japan SLC) were used. Under pentobarbital anesthesia, 300 μL of TNBS (28 mg/mL) which was prepared by 50% ethanol was administered at a point 8 cm from the anus in the large intestine to cause inflammation. To the solvent-treated group was administrated 300 μL of 50% ethanol. Animals were fasted for 48 hours prior to administration of TNBS. The test compound (3 mg/kg) prepared by 0.05% methylcellulose solution was orally administered once a day from the next day, and it was administered for a total of 3 days. After administering for 3 days, 50 mg/kg FITC was orally administered 4 hours after the administration of the test compound. Blood samples were collected from jugular vein under isoflurane anesthesia after 4 hours. The serum was centrifuged and fluorescence intensity was detected by PHERAstar FSX (BMG Labtech) to measure the concentration of FITC permeating into circulating blood through the mesentery. The suppressive rate on the intestinal permeability of the test compound was calculated based on the value of the test substance-free group as 0 and the value of the TNBS-untreated group as 100.

[2] = target: T1, human PHD2184-418 (Homo sapiens, UniProt Q9GZT9); experiment: PHD2 inhibitory test (fluorescence polarization, FITC-labeled HIF-1α556-574); conditions: human PHD2 binding inhibitory activity; 2 μM 2-oxoglutarate, 37° C., 60 minutes
T1 construct: containing amino acid residues 184 to 418 of the protein represented by CAC42509; histidine tag (N); made in house; host or cells: E. coli BL21 (DE3), pET-30a(+) vector
T1 sequence (Q9GZT9 184-418): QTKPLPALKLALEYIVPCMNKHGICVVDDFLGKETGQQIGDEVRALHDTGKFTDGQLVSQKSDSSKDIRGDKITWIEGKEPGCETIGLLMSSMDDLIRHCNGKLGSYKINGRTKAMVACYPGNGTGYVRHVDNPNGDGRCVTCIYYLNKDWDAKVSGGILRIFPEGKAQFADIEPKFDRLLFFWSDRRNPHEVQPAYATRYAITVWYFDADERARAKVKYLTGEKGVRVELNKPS
Method: Test Example 1 PHD2 Inhibitory Test
(1) Expression and preparation of human PHD2184-418
Human PHD2184-418 containing amino acid residues 184 to 418 of the protein represented by CAC42509 (GenBank accession ID) was expressed and prepared by the following method.
An expression construct of human PHD2184-418 containing N-terminal histidine tag was introduced into pET-30α (+) vector, and the sequence was confirmed. This vector was introduced into BL21 (DE3) strain and cultured at 37° C. in LB medium containing antibiotics. After culturing, a cell lysis solution was added to the cells, and then the cells were disrupted and suspended by sonication. The disrupted suspension was centrifuged and the supernatant was purified by Ni column to give human PHD2184-418.
Human HIF-1α556-574 (FITC-labeled HIF-1α556-574), containing FITC-Ahx at the N-terminal of HIF-1α556-574 containing amino acid residues 556 to 574 (partial peptide) of human HIF-1α was used as a substrate. Using FITC-labeled HIF-1α556-574, the competitive inhibition between 2-oxoglutarate and the test compound (PHD inhibitor) was evaluated based on the change in fluorescence polarization of FITC-labeled HIF-1α556-574 by the following method.
An enzyme (human PHD2184-418) and the substrate were diluted with an assay buffer (pH 7.4) containing 10 mM HEPES, 150 mM NaCl, 10 μM MnCl2-4H2O, 2 μM 2-oxoglutarate and 0.05% Tween-2θ. […]

[3] = Rat PK study: concentration of compounds in large intestine tissue and plasma; type: in vivo; conditions: male, SD, 3 mg/kg oral
Method: Test Example 3 Concentration of Compounds in Large Intestine Tissue
The test compound (3 mg/kg/5 mL) prepared with 0.05% methylcellulose was orally administered to non-fasted rats (SD, 8-week-old, male, Japan SLC). Blood samples were collected from jugular vein at 0.25, 0.5, 1, 2, 4, 6 and 8 hours after the administration. Laparotomy was performed under isoflurane anesthesia and large intestine was isolated. The collected distal large intestine (about 5 cm) was cut open, and then the large intestine extracted was washed with saline on a dish. After washing, the large intestine was minced with small scissors. About 150 mg thereof was moved to a tube. To the tube was added 100 μL of saline, and the mixture was homogenized using shake master (1000 rpm×30 minutes). Samples were prepared by the addition with quadruple volume of saline as the final volume. The concentrations of the test compound in the large intestine tissue and the plasma were measured through a quantitative analysis using liquid chromatography-mass spectrometry (LC/MS).
As the comparative example, a compound described as example 55 in US2015/0239889 (WO2014/030716) (Compound A) was used.
Symbols in the table have the following meanings. Compound A: comparative example Cmax: maximum plasma concentration of the test compound in the case of oral administration (ng/mL) AUC: area under the plasma test compound concentration-time curve (ng*min/mL) Plasma: plasma test compound concentration after 8 hours (ng/mL) Colon: concentration of the test compound in the large intestine tissue after 8 hours (ng/g) C/P: ratio of the above Colon and Plasma

[4] = Solid stability test; type: physicochemical; conditions: open condition at 40° C., 1 month; for Amount of the mass change of the compound 1: HPLC area normalization; for Crystal form change: powder X-ray diffraction; for Properties: appearance White powder
Method: Test Example 4: Solid Stability Test
Physicochemical stability and chemical stability for crystals of compound 1 (crystal forms I to IV) were examined.
Physicochemical stability: Each crystal was stored under open condition at 40° C. The powder X-ray diffraction of the sample was measured at the initial point and 1 month later, and the change in crystal form was confirmed. The change in properties was also observed at the same time. Chemical stability: Each crystal was stored under open condition at 40° C. The mass of the compound 1 was measured under the following HPLC measurement conditions at the initial point and 1 month later. [HPLC conditions] Detector: Ultraviolet and visible absorptiometer/wavelength: 225 nm
Column: L-column2 ODS, 3 μm, 4.6×150 mm (Chemicals Evaluation and Research Institute)
Column temperature: Constant temperature around 40° C. Flow rate: 1.0 mL/min Mobile phase A: A solution which was prepared with phosphoric acid to pH 2.3 after dissolving potassium dihydrogen phosphate in water to 20 mmol/L Mobile phase B: Acetonitrile Mobile phase ratios 0 to 30 minutes: mobile phase A/mobile phase B=81/19 30 to 50 minutes: mobile phase A/mobile phase B=81/19 to 25/75 50 to 55 minutes: mobile phase A/mobile phase B=25/75 55 to 55.01 minutes: mobile phase A/mobile phase B=25/75 to 81/19 55.01 to 75 minutes: mobile phase A/mobile phase B=81/19 Amount of injection: 5 μL Sample cooler: 4° C. Dissolution solvent: Mixed solution (mobile phase A/acetonitrile=75/25) Sample solution: Sample was dissolved in dissolution solvent and adjusted to about 1.0 mg/mL
Excluding the peaks derived from the blank, the peak areas of the compound 1 and an analogous substance were measured by automatic integration, and the mass of the compound 1 was calculated by area normalization method. Further, the amount of the mass change of the compound 1 after the storage was calculated.

| SMILES | Inhibition (suppressive rate on the intestinal permeability, mean) [1] [%] | IC50 [2] [nM] | concentration at 8 h ([3]; large intestine tissue (distal), read-out: Colon: concentration in the large intestine tissue after 8 hours) [ng/g] | Kp at 8 h ([3]; large intestine tissue / plasma, read-out: C/P: ratio of Colon and Plasma) | concentration at 8 h ([3]; plasma, read-out: Plasma: plasma test compound concentration after 8 hours) [ng/mL] | Amount of the mass change of the compound 1 [4] [%] | Crystal form change [4] | Properties [4] |
| --- | --- | --- | --- | --- | --- | --- | --- | --- |
| COc1ccc(Cn2cnc3nc(-n4cc(C(=O)O)cn4)[nH]c(=O)c32)cc1 [Compound 1, 1-(7-(4-Methoxybenzyl)-6-oxo-6,7-dihydro-1H-purin-2-yl)-1H-pyrazole-4-carboxylic acid] | 83 | 440 | 209 | > 209 | < 1 |  |  |  |
| COc1ccc(Cn2cnc3nc(-n4cc(C(=O)O)cn4)[nH]c(=O)c32)cc1 [Crystal form I of the compound 1, 1-(7-(4-Methoxybenzyl)-6-oxo-6,7-dihydro-1H-purin-2-yl)-1H-pyrazole-4-carboxylic acid] |  |  |  |  |  | −0.05 | No change | no change |
| COc1ccc(Cn2cnc3nc(-n4cc(C(=O)O)cn4)[nH]c(=O)c32)cc1 [Crystal form II of the compound 1, 1-(7-(4-Methoxybenzyl)-6-oxo-6,7-dihydro-1H-purin-2-yl)-1H-pyrazole-4-carboxylic acid] |  |  |  |  |  | 0.03 | No change | no change |
| COc1ccc(Cn2cnc3nc(-n4cc(C(=O)O)cn4)[nH]c(=O)c32)cc1 [Crystal form III of the compound 1, 1-(7-(4-Methoxybenzyl)-6-oxo-6,7-dihydro-1H-purin-2-yl)-1H-pyrazole-4-carboxylic acid] |  |  |  |  |  | 0.00 | No change | no change |
| COc1ccc(Cn2cnc3nc(-n4cc(C(=O)O)cn4)[nH]c(=O)c32)cc1 [Crystal form IV of the compound 1, 1-(7-(4-Methoxybenzyl)-6-oxo-6,7-dihydro-1H-purin-2-yl)-1H-pyrazole-4-carboxylic acid] |  |  |  |  |  | 0.00 | No change | no change |
